Structures can show the parent of a compound that is named as a salt.

The first test concerns Acinetobacter baumannii ATCC17961. As to the kind of experiment: Antimicrobial susceptibility testing: 90% growth inhibitory concentration (IC90) determination. Type of test: cell-based. To be noted: 90% growth inhibitory concentration; Iso-Sensitest broth, optical density at 600 nm over 16h, 35±2° C.; read-out: AB ATCC 17961 IC90. How it is done:
Antimicrobial Susceptibility Testing:
90% Growth Inhibitory Concentration (IC90) Determination
The in vitro antimicrobial activity of the compounds was determined according to the following procedure:
The assay used a 10-points Iso-Sensitest broth medium to measure quantitatively the in vitro activity of the compounds against Acinetobacter baumannii ATCC17961 or ATCC17978.
Stock compounds in DMSO were serially twofold diluted (e.g. range from 50 to 0.097 μM final concentration) in 384 wells microtiter plates and inoculated with 49 μl the bacterial suspension in Iso-Sensitest medium to have a final cell concentration of ˜5×10^(5) CFU/ml in a final volume/well of 50 ul/well. Microtiter plates were incubated at 35±2° C.
Bacterial cell growth was determined with the measurement of optical density at λ=600 nm each 20 minutes over a time course of 16h. Growth inhibition was calculated during the logarithmic growth of the bacterial cells with determination of the concentration inhibiting 50% (IC50) and 90% (IC90) of the growth.
Table 2 provides the 90% growth inhibitory concentrations (IC90) in micromoles per liter of the compounds of present invention obtained against the strain Acinetobacter baumannii ATCC17961.
In the case of `CCS(=O)(=NC)c1ccc(Nc2nccn3c(-c4ccc(OC)c(F)c4F)cnc23)cc1Cl` (centres unmarked) [Example 24, (2-chloro-4-((3-(2,3-difluoro-4-methoxyphenyl)imidazo[1,2-a]pyrazin-s-yl)amino)phenyl)(ethyl)(methylimino)-l6-sulfanone], the IC90 was found to be 170 nM.

With `CN=S(C)(=O)c1ccc(Nc2nccn3c(-c4ccc(OC)c(F)c4F)cnc23)cc1C` (centres unmarked) [Example 66, 3-(2,3-difluoro-4-methoxyphenyl)-N-(4-(N,S-dimethylsulfonimidoyl)-3-methylphenyl)imidazo[1,2-a]pyrazin-8-amine], the IC90 was 160 nM.

The test is the same for the next values; noted with them: Acinetobacter baumannii, ATCC17961, 16 h, 90% growth inhibitory concentration; Iso-Sensitest broth, optical density at 600 nm over 16h, 35±2° C.; read-out: AB ATCC 17961 IC90.
In the case of `COc1ccc(-c2cnc3c(Nc4ccc(NC(=O)CN5CCNCC5)c(C)c4)nccn23)cc1` [Example 37, N-(4-((3-(4-methoxyphenyl)imidazo[1,2-a]pyrazin-8-yl)amino)-2-methylphenyl)-2-(piperazin-1-yl)acetamide], the IC90 came out at 210 nM.

`CN=S(=O)(CCCN)c1ccc(Nc2nccn3c(-c4ccc(OC)c(F)c4F)cnc23)cc1C` (centres unmarked) [Example 72, N-(4-(3-amino-N-methylpropylsulfonimidoyl)-3-methylphenyl)-3-(2,3-difluoro-4-methoxyphenyl)imidazo[1,2-a]pyrazin-8-amine]: the IC90 stood at 120 nM.

With `NCCCCC1CC(=O)N(c2ccc(Nc3nccn4c(-c5ccc(OC(F)F)cc5)cnc34)cc2)C1` (centres unmarked) [Example 63, 4-(4-aminobutyl)-1-(4-((3-(4-(difluoromethoxy)phenyl)imidazo[1,2-a]pyrazin-8-yl)amino)phenyl)pyrrolidin-2-one], the 90% effect concentration (IC90) worked out at 36 nM.

As for `COc1ccc(-c2cnc3c(Nc4ccc([S@](C)(=O)=NCCCNC(=O)[C@@H]5C[C@@H](O)CN5)c(C)c4)nccn23)c(F)c1F` [Example 29, (2S,4R)—N-(3-(((−)-(4-((3-(2,3-difluoro-4-methoxyphenyl)imidazo[1,2-a]pyrazin-s-yl)amino)-2-methylphenyl)(methyl)(oxo)-l6-sulfaneylidene)amino)propyl)-4-hydroxypyrrolidine-2-carboxamide], the 90% effect concentration (IC90) came out at 180 nM.

Turning to `COc1ccc(-c2cnc3c(Nc4ccc(S(C)(=O)=NCCCNC(=O)[C@@H]5C[C@@H](O)CN5)cc4)nccn23)c(F)c1F` (mixture of isomers) [Example 33, rac-(2R,4S)-N-(3-(((4-((3-(2,3-difluoro-4-methoxyphenyl)imidazo[1,2-a]pyrazin-8-yl)amino)phenyl) (methyl)(oxo)-16-sulfaneylidene)amino)propyl)-4-hydroxypyrrolidine-2-carboxamide dihydrochloride], the IC90 was found to be 490 nM.

On to `COc1ccc(-c2cnc3c(Nc4ccc5c(c4)CCC5NCCN)nccn23)c(F)c1F` (centres unmarked) [Example 6, N1-(2-aminoethyl)-N5-[3-(2,3-difluoro-4-methoxy-phenyl)imidazo[1,2-a]pyrazin-8-yl]indane-1,5-diamine formic acid], for which the IC90 turned out to be 300 nM.

Take `COc1ccc(-c2cnc3c(Nc4ccc(S(=O)(=O)NCCOCCN)c(Cl)c4)nccn23)c(F)c1F` [Example 101, N-(2-(2-aminoethoxy)ethyl)-2-chloro-4-((3-(2,3-difluoro-4-methoxyphenyl)imidazo[1,2-a]pyrazin-8-yl)amino) benzenesulfonamide hydrochloride]: the IC90 was found to be 78 nM.

As for `COc1ccc(-c2cnc3c(Nc4ccc([S@@](C)(=O)=NCCCN)c(C)c4)nccn23)c(F)c1F` [Example 28, (+)-((3-aminopropyl)imino) (4-((3-(2,3-difluoro-4-methoxyphenyl)imidazo[1,2-a]pyrazin-8-yl)amino)-2-methylphenyl) (methyl)-16-sulfanone], the IC90 turned out to be 48 nM.

Regarding `COc1ccc(-c2cnc3c(Nc4ccc5c(c4)CCC5=O)nccn23)c(F)c1F` [Example 125, 5-[[3-(2,3-difluoro-4-methoxy-phenyl)imidazo[1,2-a]pyrazin-8-yl]amino]indan-1-one], the IC90 amounted to 360 nM.

The IC90 is the concentration at which the effect reaches the 90% level.

The values are drawn from US20230141403A1 (Hoffmann-La Roche Inc., priority 2020, published 2023).
